Columns and labels:
[1] = test system: all four cell lines: Ba/F3, P210 WT, P210 T315I, P210 E255K; experiment: Cell proliferation (cell viability) by trypan blue dye exclusion; assay type: cell-based, mouse; details: FIG. 4, 3 experiments, read-out: IC50 for inhibition of cell proliferation
Method: Briefly, cell culture methods were as follows. […] Cell proliferation assays were performed as follows.

[2] = test system: phospho-ERK in Ba/F3 cells expressing Bcr-Abl imatinib resistant mutants E255K and T315I; experiment: ERK phosphorylation, Western blot with phospho-ERK antibody; assay type: cell-based, mouse; details: FIG. 5
Method: (§1) The experiment was conducted as follows. On day 1, 2×10^6 cells were plated in a 6 well plate in medium containing 10% serum, and on day 2 the cells were treated with the relevant compound dissolved in DMSO. The final DMSO concentration was 0.2%. Next, the cells were spun down, and washed once with 2 ml of ice-cold phosphate buffered saline, and then lysed with […] buffer. Next, 50 ul of cell lysates was electrophoresed in 10% Tris-Glycine gels, followed by treatment with a 1° antibody which was a phospho-ERK polyclonal rabbit antibody used at 1:1000 dilution. It was obtained from Cell Signaling. The 1° was followed by a 2° antibody which was goat anti-rabbit horse radish peroxidase antibody, and it was used at a dilution of 1:1000. Lastly, Westerns were developed with an ECL kit obtained from Amersham.

[3] = test system: phospho-ERK in Ba/F3 cells expressing wild type Bcr-Abl; experiment: as above; assay type: cell-based, mouse; details: FIG. 5
Method: as §1

[4] = test system: chronic myelogenous leukemia; details: CML patients, remissions achieved during blast phase; cited from earlier work

IC50 [1]	SMILES	effect on phospho-ERK levels [2]	effect on phospho-ERK levels [3]	time to relapse after remission [4]
4 to 8 µM	CNC(=O)c1cc(Oc2ccc(NC(=O)Nc3ccc(Cl)c(C(F)(F)F)c3)cc2)ccn1 [BAY 43-9006]	decrease in phospho-ERK levels	decrease in phospho-ERK levels	
	Cc1ccc(NC(=O)c2ccc(CN3CCN(C)CC3)cc2)cc1Nc1nccc(-c2cccnc2)n1 [imatinib]			2-6 months
